Source: ChEMBL document CHEMBL2396528, “Synthesis of new conjugated coumarin-benzimidazole hybrids and their anticancer activity” (2013)

System: MOLT-4
Assay: Cytotoxicity against human MOLT4 cells assessed as growth inhibition at 10 uM after 48 hrs by SRB assay relative to control
Type: functional
Details: MOLT-4, 48 h, read-out: GI

Structure (SMILES)	inhibition of growth at 10 µM
NCCNc1ccc2cc(-c3nc4ccccc4[nH]3)c(=O)oc2c1	< 20%

System: SF-539
Assay: Cytotoxicity against human SF539 cells assessed as growth inhibition at 10 uM after 48 hrs by SRB assay relative to control
Type: functional
Details: SF-539, 48 h, read-out: GI

Structure (SMILES)	inhibition of growth at 10 µM
NCCNc1ccc2cc(-c3nc4ccccc4[nH]3)c(=O)oc2c1	< 20%

System: OVCAR-4
Assay: Cytotoxicity against human OVCAR4 cells assessed as growth inhibition at 10 uM after 48 hrs by SRB assay relative to control
Type: functional
Details: OVCAR-4, 48 h, read-out: GI

Structure (SMILES)	inhibition of growth at 10 µM
NCCNc1ccc2cc(-c3nc4ccccc4[nH]3)c(=O)oc2c1	< 20%

System: HCC 2998
Assay: Cytotoxicity against human HCC2998 cells assessed as growth inhibition at 10 uM after 48 hrs by SRB assay relative to control
Type: functional
Details: HCC 2998, 48 h, read-out: GI

Structure (SMILES)	inhibition of growth at 10 µM
NCCNc1ccc2cc(-c3nc4ccccc4[nH]3)c(=O)oc2c1	< 20%

System: ACHN
Assay: Cytotoxicity against human ACHN cells assessed as growth inhibition at 10 uM after 48 hrs by SRB assay relative to control
Type: functional
Details: read-out: GI

Structure (SMILES)	inhibition of growth at 10 µM
NCCNc1ccc2cc(-c3nc4ccccc4[nH]3)c(=O)oc2c1	< 20%

System: not listed separately
Assay: Cytotoxicity against human NCI-ADR-RES cells assessed as growth inhibition at 10 uM after 48 hrs by SRB assay relative to control
Type: functional
Details: read-out: GI

Structure (SMILES)	inhibition of growth at 10 µM
NCCNc1ccc2cc(-c3nc4ccccc4[nH]3)c(=O)oc2c1	< 20%

System: CCRF-CEM
Assay: Cytotoxicity against human CCRF-CEM cells assessed as growth inhibition at 10 uM after 48 hrs by SRB assay relative to control
Type: functional
Details: read-out: GI

Structure (SMILES)	inhibition of growth at 10 µM
NCCNc1ccc2cc(-c3nc4ccccc4[nH]3)c(=O)oc2c1	< 20%

System: OVCAR-8
Assay: Cytotoxicity against human OVCAR8 cells assessed as growth inhibition at 10 uM after 48 hrs by SRB assay relative to control
Type: functional
Details: OVCAR-8, 48 h, read-out: GI

Structure (SMILES)	inhibition of growth at 10 µM
NCCNc1ccc2cc(-c3nc4ccccc4[nH]3)c(=O)oc2c1	< 20%

System: A498
Assay: Cytotoxicity against human A498 cells assessed as growth inhibition at 10 uM after 48 hrs by SRB assay relative to control
Type: functional
Details: A498, 48 h, read-out: GI

Structure (SMILES)	inhibition of growth at 10 µM
NCCNc1ccc2cc(-c3nc4ccccc4[nH]3)c(=O)oc2c1	< 20%

System: NCI-H23
Assay: Cytotoxicity against human NCI-H23 cells assessed as growth inhibition at 10 uM after 48 hrs by SRB assay relative to control
Type: functional
Details: NCI-H23, 48 h, read-out: GI

Structure (SMILES)	inhibition of growth at 10 µM
NCCNc1ccc2cc(-c3nc4ccccc4[nH]3)c(=O)oc2c1	< 20%

System: UACC-62
Assay: Cytotoxicity against human UACC62 cells assessed as growth inhibition at 10 uM after 48 hrs by SRB assay relative to control
Type: functional
Details: UACC-62, 48 h, read-out: GI

Structure (SMILES)	inhibition of growth at 10 µM
NCCNc1ccc2cc(-c3nc4ccccc4[nH]3)c(=O)oc2c1	< 20%

System: HCT-116
Assay: Cytotoxicity against human HCT116 cells assessed as growth inhibition at 10 uM after 48 hrs by SRB assay relative to control
Type: functional
Details: HCT-116, 48 h, read-out: GI

Structure (SMILES)	inhibition of growth at 10 µM
NCCNc1ccc2cc(-c3nc4ccccc4[nH]3)c(=O)oc2c1	< 20%

System: UO-31
Assay: Cytotoxicity against human UO31 cells assessed as growth inhibition at 10 uM after 48 hrs by SRB assay relative to control
Type: functional
Details: UO-31, 48 h, read-out: GI

Structure (SMILES)	inhibition of growth at 10 µM
NCCNc1ccc2cc(-c3nc4ccccc4[nH]3)c(=O)oc2c1	< 20%

System: SW-620
Assay: Cytotoxicity against human SW620 cells assessed as growth inhibition at 10 uM after 48 hrs by SRB assay relative to control
Type: functional
Details: SW-620, 48 h, read-out: GI

Structure (SMILES)	inhibition of growth at 10 µM
NCCNc1ccc2cc(-c3nc4ccccc4[nH]3)c(=O)oc2c1	< 20%

System: HOP-62
Assay: Cytotoxicity against human HOP62 cells assessed as growth inhibition at 10 uM after 48 hrs by SRB assay relative to control
Type: functional
Details: HOP-62, 48 h, read-out: GI

Structure (SMILES)	inhibition of growth at 10 µM
NCCNc1ccc2cc(-c3nc4ccccc4[nH]3)c(=O)oc2c1	< 20%

System: PC-3
Assay: Cytotoxicity against human PC3 cells assessed as growth inhibition at 10 uM after 48 hrs by SRB assay relative to control
Type: functional
Details: PC-3, 48 h, read-out: GI

Structure (SMILES)	inhibition of growth at 10 µM
NCCNc1ccc2cc(-c3nc4ccccc4[nH]3)c(=O)oc2c1	20.3%

System: DU-145
Assay: Cytotoxicity against human DU145 cells assessed as growth inhibition at 10 uM after 48 hrs by SRB assay relative to control
Type: functional
Details: DU-145, 48 h, read-out: GI

Structure (SMILES)	inhibition of growth at 10 µM
NCCNc1ccc2cc(-c3nc4ccccc4[nH]3)c(=O)oc2c1	< 20%

System: Malme-3M
Assay: Cytotoxicity against human MALME-3M cells assessed as growth inhibition at 10 uM after 48 hrs by SRB assay relative to control
Type: functional
Details: read-out: GI

Structure (SMILES)	inhibition of growth at 10 µM
NCCNc1ccc2cc(-c3nc4ccccc4[nH]3)c(=O)oc2c1	< 20%

System: SF-268
Assay: Cytotoxicity against human SF268 cells assessed as growth inhibition at 10 uM after 48 hrs by SRB assay relative to control
Type: functional
Details: SF-268, 48 h, read-out: GI

Structure (SMILES)	inhibition of growth at 10 µM
NCCNc1ccc2cc(-c3nc4ccccc4[nH]3)c(=O)oc2c1	< 20%

System: SN12C
Assay: Cytotoxicity against human SN12C cells assessed as growth inhibition at 10 uM after 48 hrs by SRB assay relative to control
Type: functional
Details: read-out: GI

Structure (SMILES)	inhibition of growth at 10 µM
NCCNc1ccc2cc(-c3nc4ccccc4[nH]3)c(=O)oc2c1	< 20%

System: M14
Assay: Cytotoxicity against human M14 cells assessed as growth inhibition at 10 uM after 48 hrs by SRB assay relative to control
Type: functional
Details: M14, 48 h, read-out: GI

Structure (SMILES)	inhibition of growth at 10 µM
NCCNc1ccc2cc(-c3nc4ccccc4[nH]3)c(=O)oc2c1	< 20%

System: HCT-15
Assay: Cytotoxicity against human HCT15 cells assessed as growth inhibition at 10 uM after 48 hrs by SRB assay relative to control
Type: functional
Details: HCT-15, 48 h, read-out: GI

Structure (SMILES)	inhibition of growth at 10 µM
NCCNc1ccc2cc(-c3nc4ccccc4[nH]3)c(=O)oc2c1	20.6%

System: MDA-MB-468
Assay: Cytotoxicity against human MDA-MB-468 cells assessed as growth inhibition at 10 uM after 48 hrs by SRB assay relative to control
Type: functional
Details: MDA-MB-468, 48 h, read-out: GI

Structure (SMILES)	inhibition of growth at 10 µM
NCCNc1ccc2cc(-c3nc4ccccc4[nH]3)c(=O)oc2c1	< 20%

System: SK-OV-3
Assay: Cytotoxicity against human SKOV3 cells assessed as growth inhibition at 10 uM after 48 hrs by SRB assay relative to control
Type: functional
Details: SK-OV-3, 48 h, read-out: GI

Structure (SMILES)	inhibition of growth at 10 µM
NCCNc1ccc2cc(-c3nc4ccccc4[nH]3)c(=O)oc2c1	< 20%

System: HL-60(TB)
Assay: Cytotoxicity against human HL-60(TB) cells assessed as growth inhibition at 10 uM after 48 hrs by SRB assay relative to control
Type: functional
Details: HL-60, 48 h, read-out: GI

Structure (SMILES)	inhibition of growth at 10 µM
NCCNc1ccc2cc(-c3nc4ccccc4[nH]3)c(=O)oc2c1	< 20%

System: HOP-92
Assay: Cytotoxicity against human HOP92 cells assessed as growth inhibition at 10 uM after 48 hrs by SRB assay relative to control
Type: functional
Details: HOP-92, 48 h, read-out: GI

Structure (SMILES)	inhibition of growth at 10 µM
NCCNc1ccc2cc(-c3nc4ccccc4[nH]3)c(=O)oc2c1	< 20%

System: IGROV-1
Assay: Cytotoxicity against human IGROV1 cells assessed as growth inhibition at 10 uM after 48 hrs by SRB assay relative to control
Type: functional
Details: IGROV-1, 48 h, read-out: GI

Structure (SMILES)	inhibition of growth at 10 µM
NCCNc1ccc2cc(-c3nc4ccccc4[nH]3)c(=O)oc2c1	< 20%

System: MCF7
Assay: Cytotoxicity against human MCF7 cells assessed as growth inhibition at 10 uM after 48 hrs by SRB assay relative to control
Type: functional
Details: MCF7, 48 h, read-out: GI

Structure (SMILES)	inhibition of growth at 10 µM
NCCNc1ccc2cc(-c3nc4ccccc4[nH]3)c(=O)oc2c1	< 20%

System: Hs-578T
Assay: Cytotoxicity against human Hs578T cells assessed as growth inhibition at 10 uM after 48 hrs by SRB assay relative to control
Type: functional
Details: read-out: GI

Structure (SMILES)	inhibition of growth at 10 µM
NCCNc1ccc2cc(-c3nc4ccccc4[nH]3)c(=O)oc2c1	< 20%

System: K562
Assay: Cytotoxicity against human K562 cells assessed as growth inhibition at 10 uM after 48 hrs by SRB assay relative to control
Type: functional
Details: K562, 48 h, read-out: GI

Structure (SMILES)	inhibition of growth at 10 µM
NCCNc1ccc2cc(-c3nc4ccccc4[nH]3)c(=O)oc2c1	< 20%

System: SNB-75
Assay: Cytotoxicity against human SNB75 cells assessed as growth inhibition at 10 uM after 48 hrs by SRB assay relative to control
Type: functional
Details: SNB-75, 48 h, read-out: GI

Structure (SMILES)	inhibition of growth at 10 µM
NCCNc1ccc2cc(-c3nc4ccccc4[nH]3)c(=O)oc2c1	< 20%

System: U-251
Assay: Cytotoxicity against human U251 cells assessed as growth inhibition at 10 uM after 48 hrs by SRB assay relative to control
Type: functional
Details: U-251, 48 h, read-out: GI

Structure (SMILES)	inhibition of growth at 10 µM
NCCNc1ccc2cc(-c3nc4ccccc4[nH]3)c(=O)oc2c1	< 20%

System: MDA-MB-231
Assay: Cytotoxicity against human MDA-MB-231 cells assessed as growth inhibition at 10 uM after 48 hrs by SRB assay relative to control
Type: functional
Details: MDA-MB-231, 48 h, read-out: GI

Structure (SMILES)	inhibition of growth at 10 µM
NCCNc1ccc2cc(-c3nc4ccccc4[nH]3)c(=O)oc2c1	34%

System: NCI-H226
Assay: Cytotoxicity against human NCI-H226 cells assessed as growth inhibition at 10 uM after 48 hrs by SRB assay relative to control
Type: functional
Details: NCI-H226, 48 h, read-out: GI

Structure (SMILES)	inhibition of growth at 10 µM
NCCNc1ccc2cc(-c3nc4ccccc4[nH]3)c(=O)oc2c1	< 20%
